Measurements: patent publication US20180338980A1, “AROMATIC SULFONAMIDE DERIVATIVES” (BAYER PHARMA AKTIENGESELLSCHAFT, priority 2015, published 2018)
Where “and” joins values, the source holds several entries; their conditions need not be identical. Equal values may be shown once.

Molecular target: T1, P2X4 (Homo sapiens, UniProt Q99571)
T1 sequence (Q99571 1-388): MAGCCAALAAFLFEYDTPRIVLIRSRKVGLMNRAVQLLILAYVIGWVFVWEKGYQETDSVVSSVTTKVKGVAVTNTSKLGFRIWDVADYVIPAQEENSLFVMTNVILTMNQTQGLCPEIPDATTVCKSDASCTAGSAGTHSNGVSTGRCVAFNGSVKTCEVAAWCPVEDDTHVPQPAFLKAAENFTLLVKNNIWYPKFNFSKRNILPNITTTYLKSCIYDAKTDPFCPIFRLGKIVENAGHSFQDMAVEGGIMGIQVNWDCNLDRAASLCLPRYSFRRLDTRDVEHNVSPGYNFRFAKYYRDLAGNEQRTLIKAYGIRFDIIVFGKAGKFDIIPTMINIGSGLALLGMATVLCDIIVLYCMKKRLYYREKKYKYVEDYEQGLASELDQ
Assay: Assay B: human P2X4 receptor cell line, mitochondrial photina luminescence (agonist Bz-ATP at EC50)
Type: cell-based
Set-up: host or cells: HEK 293 (recombinant, constitutively expressing; with mitochondrial photina in Assay B)
Settings: HEK human P2X4 cell line, photina luminescence, agonist Bz-ATP at EC50, average; for Emax: read-out: human P2X4 Assay B avg Efficacy
Method in brief: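 Recombinant cell line constitutively expressing human P2X4 and mitochondrial photina photoprotein, reconstituted with coelenterazine. Receptor stimulated with Bz-ATP at EC50; calcium influx read immediately as luminescence.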

Compound | IC50 | Emax [%]
COCCNC(=O)c1cccc(CC(=O)Nc2ccc(Oc3cccc(Cl)c3)c(S(N)(=O)=O)c2)c1 [Example 201, 3-(2-{[4-(3-Chlorophenoxy)-3-sulfamoylphenyl]amino}-2-oxoethyl)-N-(2-methoxyethyl)benzamide] | 3300 nM | 73
NS(=O)(=O)c1cc(NC(=O)Cc2ccccc2)ccc1OC1CCC1 [Example 204, N-[4-(Cyclobutyloxy)-3-sulfamoylphenyl]-2-phenylacetamide] | 4040 nM | 60
NS(=O)(=O)c1cc(NC(=O)Cc2ccccc2)ccc1OC1CCOCC1 [Example 206, 2-Phenyl-N-[3-sulfamoyl-4-(tetrahydro-2H-pyran-4-yloxy)phenyl]acetamide] | 10800 nM | 88
NS(=O)(=O)c1cc(NC(=O)Cc2ccccc2Cl)ccc1OC1COC1 [Example 216, 2-(2-Chlorophenyl)-N-[4-(oxetan-3-yloxy)-3-sulfamoylphenyl]acetamide] | 3350 nM | 45
NS(=O)(=O)c1cc(NC(=O)Cc2ccccc2)ccc1OC1CCCC1 [Example 217, N-[4-(Cyclopentyloxy)-3-sulfamoylphenyl]-2-phenylacetamide] | 4030 nM | 67
CN1CCCC(Oc2ccc(NC(=O)Cc3ccccc3)cc2S(N)(=O)=O)C1 (centres unmarked) [Example 219, N-{4-[(1-Methylpiperidin-3-yl)oxy]-3-sulfamoylphenyl}-2-phenylacetamide] | > 50000 nM | 23
CN1CCCC(Oc2ccc(NC(=O)Cc3ccccc3Cl)cc2S(N)(=O)=O)C1 (centres unmarked) [Example 220, 2-(2-Chlorophenyl)-N-{4-[(1-methylpiperidin-3-yl)oxy]-3-sulfamoylphenyl}acetamide] | 3810 nM | 77
CN1CCC(Oc2ccc(NC(=O)Cc3ccccc3)cc2S(N)(=O)=O)C1 (centres unmarked) [Example 221, N-{4-[(1-Methylpyrrolidin-3-yl)oxy]-3-sulfamoylphenyl}-2-phenylacetamide] | > 50000 nM | 30
CN1CCC(Oc2ccc(NC(=O)Cc3ccccc3Cl)cc2S(N)(=O)=O)C1 (centres unmarked) [Example 222, 2-(2-Chlorophenyl)-N-{4-[(1-methylpyrrolidin-3-yl)oxy]-3-sulfamoylphenyl}acetamide] | 8540 nM and 8060 nM and > 16000 nM | 70
NS(=O)(=O)c1cc(NC(=O)Cc2ccc(F)cc2)ccc1Oc1ccc(Cl)cc1 [Example 223, N-[4-(4-Chlorophenoxy)-3-sulfamoylphenyl]-2-(4-fluorophenyl)acetamide] | 1850 nM | 82
NS(=O)(=O)c1cc(NC(=O)Cc2ccccc2F)ccc1Oc1ccc(Cl)cc1 [Example 230, N-[4-(4-Chlorophenoxy)-3-sulfamoylphenyl]-2-(2-fluorophenyl)acetamide] | – | 50
CN1CCC(Oc2ccc(NC(=O)Cc3ccccc3Cl)cc2S(N)(=O)=O)CC1 [Example 238, 2-(2-Chlorophenyl)-N-{4-[(1-methylpiperidin-4-yl)oxy]-3-sulfamoylphenyl}acetamide] | > 16000 nM | –
Cc1cc(Oc2cccc(Cl)c2)c(S(N)(=O)=O)cc1NC(=O)Cc1ccccc1Cl [Example 240, N-[4-(3-Chlorophenoxy)-2-methyl-5-sulfamoylphenyl]-2-(2-chlorophenyl)acetamide] | 3040 nM | 86
NS(=O)(=O)c1cc(NC(=O)Cc2ccccc2Cl)ccc1OC1CC[S+]([O-])C1 (centres unmarked) [Example 241, 2-(2-Chlorophenyl)-N-{4-[(1-oxidotetrahydrothiophen-3-yl)oxy]-3-sulfamoylphenyl}acetamide] | > 16000 nM | 34
NS(=O)(=O)c1cc(NC(=O)Cc2c(Cl)cc(C(F)(F)F)cc2Cl)ccc1Oc1ccc(Cl)cc1 [Example 242, N-[4-(4-Chlorophenoxy)-3-sulfamoylphenyl]-2-[2,6-dichloro-4-(trifluoromethyl)phenyl]acetamide] | 2870 nM and > 16000 nM | 71
N#Cc1cc(Cl)c(CC(=O)Nc2ccc(Oc3ccc(Cl)cc3)c(S(N)(=O)=O)c2)cc1Cl [Example 243, N-[4-(4-Chlorophenoxy)-3-sulfamoylphenyl]-2-(2,5-dichloro-4-cyanophenyl)acetamide] | 2720 nM | 70
NS(=O)(=O)c1cc(NC(=O)Cc2ccccc2)ccc1OCC1CC1 [Example 245, N-[4-(Cyclopropylmethoxy)-3-sulfamoylphenyl]-2-phenylacetamide] | 5970 nM | 68

The next lines start with the values.

IC50 | Emax [%] | Compound
1350 nM | 69 | CNC(=O)c1cccc(CC(=O)Nc2ccc(Oc3cccc(Cl)c3)c(S(N)(=O)=O)c2)c1 [Example 203, 3-(2-{[4-(3-Chlorophenoxy)-3-sulfamoylphenyl]amino}-2-oxoethyl)-N-methylbenzamide]
396 nM | 74 | NS(=O)(=O)c1cc(NC(=O)Cc2ccccc2Cl)ccc1OC1CCC1 [Example 205, 2-(2-Chlorophenyl)-N-[4-(cyclobutyloxy)-3-sulfamoylphenyl]acetamide]
742 nM | 64 | NS(=O)(=O)c1cc(NC(=O)Cc2ccc(Cl)cn2)ccc1Oc1cccc(Cl)c1 [Example 209, N-[4-(3-Chlorophenoxy)-3-sulfamoylphenyl]-2-(5-chloropyridin-2-yl)acetamide]
491 nM | 71 | COCCOc1cccc(CC(=O)Nc2ccc(Oc3cccc(Cl)c3)c(S(N)(=O)=O)c2)c1 [Example 210, N-[4-(3-Chlorophenoxy)-3-sulfamoylphenyl]-2-[3-(2-methoxyethoxy)phenyl]acetamide]
404 nM | 102 | COCCOc1ccccc1CC(=O)Nc1ccc(Oc2cccc(Cl)c2)c(S(N)(=O)=O)c1 [Example 211, N-[4-(3-Chlorophenoxy)-3-sulfamoylphenyl]-2-[2-(2-methoxyethoxy)phenyl]acetamide]
406 nM | 85 | NS(=O)(=O)c1cc(NC(=O)Cc2cccc(OCCO)c2)ccc1Oc1cccc(Cl)c1 [Example 212, N-[4-(3-Chlorophenoxy)-3-sulfamoylphenyl]-2-[3-(2-hydroxyethoxy)phenyl]acetamide]
818 nM | 61 | NS(=O)(=O)c1cc(NC(=O)Cc2ccccc2OCCO)ccc1Oc1cccc(Cl)c1 [Example 213, N-[4-(3-Chlorophenoxy)-3-sulfamoylphenyl]-2-[2-(2-hydroxyethoxy)phenyl]acetamide]
1510 nM | 68 | NS(=O)(=O)c1cc(NC(=O)Cc2ccccc2)ccc1OC1COC1 [Example 215, N-[4-(Oxetan-3-yloxy)-3-sulfamoylphenyl]-2-phenylacetamide]
248 nM | 80 | NS(=O)(=O)c1cc(NC(=O)Cc2ccccc2Cl)ccc1OC1CCCC1 [Example 218, 2-(2-Chlorophenyl)-N-[4-(cyclopentyloxy)-3-sulfamoylphenyl]acetamide]
192 nM | 98 | N#Cc1ccccc1CC(=O)Nc1ccc(Oc2cccc(Cl)c2)c(S(N)(=O)=O)c1 [Example 225, N-[4-(3-Chlorophenoxy)-3-sulfamoylphenyl]-2-(2-cyanophenyl)acetamide]
491 nM | 75 | N#Cc1cccc(CC(=O)Nc2ccc(Oc3cccc(Cl)c3)c(S(N)(=O)=O)c2)c1 [Example 226, N-[4-(3-Chlorophenoxy)-3-sulfamoylphenyl]-2-(3-cyanophenyl)acetamide]
1770 nM | 69 | NS(=O)(=O)c1cc(NC(=O)Cc2ccc(C(F)(F)F)cc2)ccc1Oc1ccc(Cl)cc1 [Example 227, N-[4-(4-Chlorophenoxy)-3-sulfamoylphenyl]-2-[4-(trifluoromethyl)phenyl]acetamide]
1590 nM | 58 | NS(=O)(=O)c1cc(NC(=O)Cc2ccc(Cl)cc2)ccc1Oc1ccc(Cl)cc1 [Example 228, N-[4-(4-Chlorophenoxy)-3-sulfamoylphenyl]-2-(4-chlorophenyl)acetamide]
232 nM | 77 | Cn1ccc(Oc2ccc(NC(=O)Cc3ccccc3Cl)cc2S(N)(=O)=O)n1 [Example 236, 2-(2-Chlorophenyl)-N-{4-[(1-methyl-1H-pyrazol-3-yl)oxy]-3-sulfamoylphenyl}acetamide]
235 nM | 59 | Cn1nccc1Oc1ccc(NC(=O)Cc2ccccc2Cl)cc1S(N)(=O)=O [Example 237, 2-(2-Chlorophenyl)-N-{4-[(1-methyl-1H-pyrazol-5-yl)oxy]-3-sulfamoylphenyl}acetamide]
152 nM | 99 | Cc1sc(-c2cccnc2)nc1Oc1ccc(NC(=O)Cc2ccccc2Cl)cc1S(N)(=O)=O [Example 239, 2-(2-Chlorophenyl)-N-(4-{[5-methyl-2-(pyridin-3-yl)-1,3-thiazol-4-yl]oxy}-3-sulfamoylphenyl)acetamide]
949 nM | 94 | Cc1cc(C)cc(Oc2ccc(NC(=O)Cc3ccccc3)cc2S(N)(=O)=O)c1 [Example 246, N-[4-(3,5-Dimethylphenoxy)-3-sulfamoylphenyl]-2-phenylacetamide]
1110 nM | 59 | NS(=O)(=O)c1cc(NC(=O)Cc2ccccc2)ccc1Oc1ccc(F)cc1F [Example 247, N-[4-(2,4-Difluorophenoxy)-3-sulfamoylphenyl]-2-phenylacetamide]
